Test results reported in patent publication US6858641B2, “Substituted indolinones” (Boehringer Ingelheim Pharma KG, priority 2001, dated 2005).

System: Human umbilical endothelial cells (HUVEC)
Test: Inhibition of VEGF165-stimulated HUVEC proliferation (3H-thymidine incorporation)
Format: cell-based
Conditions: HUVEC stimulated with 5 ng/ml VEGF165 and 10 μg/ml heparin; 76 hours incubation then 16 hours 3H-thymidine; concentration inhibiting proliferation by 50%
Description: Human umbilical endothelial cells (HUVEC) were cultivated in IMDM (Gibco BRL), supplemented with 10% foetal calf serum (FBS) (Sigma), 50 μM of β-mercaptoethanol (Fluka), standard antibiotics, 15 μg/ml of endothelial cell growth factor (ECGS, Collaborative Biomedical Products) and 100 μg/ml of heparin (Sigma) on gelatine-coated culture dishes (0.2% gelatine, Sigma) at 37° C., under 5% CO2 in a water-saturated atmosphere.
In order to investigate the inhibitory activity of the compounds according to the invention the cells were “starved” for 16 hours, i.e. kept in culture medium without growth factors (ECGS+heparin). The cells were detached from the culture dishes using trypsin/EDTA and washed once in serum-containing medium. Then they were seeded out in amounts of 2.5×10^3 cells per well.
The proliferation of the cells was stimulated with 5 ng/ml of VEGF165 (vascular endothelial growth factor; H. Weich, GBF Braunschweig) and 10 μg/ml of heparin. As a control, 6 wells in each dish were not stimulated.
The compounds according to the invention were dissolved in 100% dimethylsulphoxide and added to the cultures in various dilutions as triple measurements, the maximum dimethylsulphoxide concentration being 0.3%.
The cells were incubated for 76 hours at 37° C., then for a further 16 hours ^3H-thymidine (0.1 μCi/well, Amersham) was added in order to determine the DNA synthesis. Then the radioactively labelled cells were immobilised on filter mats and the radioactivity incorporated was measured in a β-counter. In order to determine the inhibitory activity of the compounds according to the invention the mean value of the non-stimulated cells was subtracted from the mean value of the factor-stimulated cells (in the presence or absence of the compounds according to the invention).
The relative cell proliferation was calculated as a percentage of the control (HUVEC without inhibitor) and the concentration of active substance which inhibits the proliferation of the cells by 50% (IC50) was determined.

Molecule | IC50 [nM]
methyl 3-(Z)-[1-{4-[(4-(2-hydroxy-ethyl)-piperazin-1-yl)-carbonyl]-phenylamino}1-phenyl-methylidene]-2-indolinone-6-carboxylate [(i)] | 20
methyl 3-(Z)-[1-{4-[(4-ethyl-piperazin-1-yl)-carbonyl]-phenylamino}-1-phenyl-methylidene]-2-indolinone-6-carboxylate [(h)] | 20
COC(=O)c1ccc2c(c1)NC(=O)/C2=C(\Nc1ccc(C(=O)N(C)CCCN(C)C)cc1)c1ccccc1 [(b), methyl 3-(Z)-[1-{4-[N-(3-dimethylamino-propyl)-N-methyl-carbamoyl]-phenylamino}-1-phenyl-methylidene]-2-indolinone-6-carboxylate] | 20
methyl 3-(Z)-[1-{4-[(4-methyl-piperazin-1-yl)-carbonyl]-phenylamino}-1-phenyl-methylidene]-2-indolinone-6-carboxylate [(c)] | 30
methyl 3-(Z)-[1-{4-[(4-hydroxy-piperidin-1-yl)-carbonyl]-phenylamino}-1-phenyl-methylidene]-2-indolinone-6-carboxylate [(d)] | 50
COC(=O)c1ccc2c(c1)NC(=O)/C2=C(\Nc1ccc(C(=O)N(C)CCN(C)C)cc1)c1ccccc1 [(a), methyl 3-(Z)-[1-{4-[N-(2-dimethylamino-ethyl)-N-methyl-carbamoyl]-phenylamino}-1-phenyl-methylidene]-2-indolinone-6-carboxylate] | 40
